Source: US20140107109A1, “AMINO-DIHYDROTHIAZINE AND AMINO-DIOXIDO DIHYDROTHIAZINE COMPOUNDS AS BETA-SECRETASE ANTAGONISTS AND METHODS OF USE” (Amgen Inc., priority 2012, published 2014)
Read-outs that look alike come from different tables or passages of the source.

What was measured:
[1] = target: Beta Secretase enzyme (BACE1) (Homo sapiens, UniProt P56817); assay: In vitro enzymatic BACE FRET assay; assay type: biochemical; settings: read-out: BACE1 FRET assay IC50
Procedure, shortened: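 Readout: dequenched fluorescence (ex 488 nm/[…]) after neutralizing with Tris buffer. Reactions, begun by adding 50 nM quenched peptide substrate spanning the BACE cleavage site, were incubated one hour at pH 4.2 in 0.05 M acetate with 100 uM genapol and 10% final DMSO.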

[2] = tested on: Aβ40 in conditioned medium of cells stably expressing Amyloid Precursor Protein (APP); assay: In vitro BACE cell-based assay (HEK cell assay), Aβ40 sandwich ELISA; settings: Homo sapiens, HEK293
Procedure, shortened: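 Aβ40 in conditioned medium was quantified by time-resolved fluorescence sandwich ELISA (pAb40 capture 3 h at 4 °C, biotin-6E10 detection 2 h at 4 °C) after 24 h compound exposure of APP-expressing cells. Doses spanned 10 points from 100 μM or 10 μM top, 0.1% DMSO; IC50 was derived from percent of control.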

Cathepsin D (Cat D) = target: T1, Cathepsin D (Cat D) (Homo sapiens, UniProt P07339); assay: In vitro enzymatic Cathepsin D (Cat D) FRET assay; assay type: biochemical; settings: read-out: CatD IC50
T1 construct: Recombinant Cat D was expressed in CHO cells; made in house; host or cells: CHO cells
T1 sequence (P07339 65-412, species assumed): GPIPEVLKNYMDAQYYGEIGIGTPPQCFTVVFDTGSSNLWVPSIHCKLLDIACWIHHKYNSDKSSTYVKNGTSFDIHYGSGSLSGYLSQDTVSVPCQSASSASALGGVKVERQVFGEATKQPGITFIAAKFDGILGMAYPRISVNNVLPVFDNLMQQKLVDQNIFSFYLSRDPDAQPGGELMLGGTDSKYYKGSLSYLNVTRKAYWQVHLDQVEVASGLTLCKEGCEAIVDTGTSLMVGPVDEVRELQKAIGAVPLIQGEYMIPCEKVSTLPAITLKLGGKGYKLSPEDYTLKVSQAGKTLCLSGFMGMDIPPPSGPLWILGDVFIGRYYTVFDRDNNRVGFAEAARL
Procedure, shortened: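 FRET read-out: a fluorophore/quencher-labelled peptide substrate is cleaved by 9 nM Cat D (recombinant, CHO-expressed) following a one-hour preincubation with inhibitor dilutions in DMSO. Tris buffer added to neutralize pH ends the reaction before fluorescence measurement.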

Sequence of Beta Secretase enzyme (BACE1) (P56817 46-501): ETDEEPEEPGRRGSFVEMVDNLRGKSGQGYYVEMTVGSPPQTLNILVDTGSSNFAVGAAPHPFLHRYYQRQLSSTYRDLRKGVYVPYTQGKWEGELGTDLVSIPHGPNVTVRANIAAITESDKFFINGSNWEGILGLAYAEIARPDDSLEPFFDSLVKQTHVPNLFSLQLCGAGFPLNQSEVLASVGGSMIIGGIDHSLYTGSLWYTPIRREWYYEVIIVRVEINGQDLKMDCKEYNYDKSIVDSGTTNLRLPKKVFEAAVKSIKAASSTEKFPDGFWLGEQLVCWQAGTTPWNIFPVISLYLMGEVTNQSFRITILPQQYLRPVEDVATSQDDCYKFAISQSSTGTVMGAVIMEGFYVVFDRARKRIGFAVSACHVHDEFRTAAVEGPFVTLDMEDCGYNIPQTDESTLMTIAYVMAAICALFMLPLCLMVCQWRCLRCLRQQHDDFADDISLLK

Structure (SMILES)	IC50 ([1]; average IC50, enzyme assay)	IC50 ([2]; average IC50, cell assay)	IC50 (Cathepsin D (Cat D))	IC50 ([1]; average IC50)	IC50 ([2]; average IC50, HEK cells)
CC1(C)C(N)=N[C@](C)(c2cc(NC(=O)c3ccc(Cl)cc3)ccc2F)CS1(=O)=O [Example 212, N-(3-((3R)-5-amino-3,6,6-trimethyl-1,1-dioxido-3,6-dihydro-2H-1,4-thiazin-3-yl)-4-fluorophenyl)-4-chlorobenzamide]	10.2 nM	23.3 nM	317000 nM	–	–
CC1(C)C(N)=N[C@](C)(c2cc(NC(=O)c3ccc(Cl)cc3F)ccc2F)CS1(=O)=O [Example 213, N-(3-((3R)-5-amino-3,6,6-trimethyl-1,1-dioxido-3,6-dihydro-2H-1,4-thiazin-3-yl)-4-fluorophenyl)-4-chloro-2-fluorobenzamide]	12.3 nM	29 nM	442000 nM	–	–
Cc1cc(Cl)cnc1C(=O)Nc1ccc(F)c([C@@]2(CF)CS(=O)(=O)C3(CC3)C(N)=N2)c1 [Example 215, N-(3-((6R)-8-amino-6-(fluoromethyl)-4,4-dioxido-4-thia-7-azaspiro[2.5]oct-7-en-6-yl)-4-fluorophenyl)-5-chloro-3-methyl-2-pyridinecarboxamide]	–	–	432000 nM	212 nM	903 nM
Cc1cc(Cl)cnc1C(=O)Nc1ccc(F)c([C@]2(CF)CS(=O)(=O)C3(CC3)C(N)=N2)c1 [Example 216, N-(3-((6S)-8-amino-6-(fluoromethyl)-4,4-dioxido-4-thia-7-azaspiro[2.5]oct-7-en-6-yl)-4-fluorophenyl)-5-chloro-3-methyl-2-pyridinecarboxamide]	–	–	132000 nM	0.54 nM	4.4 nM
Cc1cc(OC(F)F)cnc1C(=O)Nc1ccc(F)c([C@]2(CF)CS(=O)(=O)C3(CC3)C(N)=N2)c1 [Example 217, N-(3-((6S)-8-amino-6-(fluoromethyl)-4,4-dioxido-4-thia-7-azaspiro[2.5]oct-7-en-6-yl)-4-fluorophenyl)-5-(difluoromethoxy)-3-methyl-2-pyridinecarboxamide]	–	–	46800 nM	1.2 nM	6.1 nM
Cc1cc(OC(F)F)cnc1C(=O)Nc1ccc(F)c([C@@]2(CF)CS(=O)(=O)C3(CC3)C(N)=N2)c1 [Example 218, N-(3-((6R)-8-amino-6-(fluoromethyl)-4,4-dioxido-4-thia-7-azaspiro[2.5]oct-7-en-6-yl)-4-fluorophenyl)-5-(difluoromethoxy)-3-methyl-2-pyridinecarboxamide]	–	–	637000 nM	150 nM	830 nM
COc1cnc2c(Nc3cnc(F)c([C@]4(C)CS(=O)(=O)C(C)(C)C(N)=N4)c3)nccc2n1 [Example 222, N-(5-((3R)-5-amino-3,6,6-trimethyl-1,1-dioxido-3,6-dihydro-2H-1,4-thiazin-3-yl)-6-fluoro-3-pyridinyl)-2-methoxypyrido[3,4-b]pyrazin-5-amine]	2.59 nM	3.6 nM	280000 nM	–	–
CC1(C)C(N)=N[C@](C)(c2cc(Nc3nccc4nc(C(F)(F)F)cnc34)cnc2F)CS1(=O)=O [Example 224, N-(5-((3R)-5-amino-3,6,6-trimethyl-1,1-dioxido-3,6-dihydro-2H-1,4-thiazin-3-yl)-6-fluoro-3-pyridinyl)-2-(trifluoromethyl)pyrido[3,4-b]pyrazin-5-amine]	16 nM	39.9 nM	457000 nM	–	–
CC#CCOc1cnc2c(Nc3ccc(F)c([C@]4(C)CS(=O)(=O)[C@@](C)(F)C(N)=N4)c3)nccc2c1 [Example 226, N-(3-((3R,6R)-5-amino-6-fluoro-3,6-dimethyl-1,1-dioxido-3,6-dihydro-2H-1,4-thiazin-3-yl)-4-fluorophenyl)-3-(2-butyn-1-yloxy)-1,7-naphthyridin-8-amine]	0.74 nM	5.74 nM	> 400000 nM	–	–
C[C@@]1(c2cc(Nc3nccc4cc(Cl)cnc34)cnc2F)CS(=O)(=O)C2(CCC2)C(N)=N1 [Example 230, N-(5-((7R)-9-amino-7-methyl-5,5-dioxido-5-thia-8-azaspiro[3.5]non-8-en-7-yl)-6-fluoro-3-pyridinyl)-3-chloro-1,7-naphthyridin-8-amine]	3.76 nM	18.8 nM	23200 nM	–	–
COc1cnc2c(Nc3cnc(F)c([C@]4(C)CS(=O)(=O)C5(CCC5)C(N)=N4)c3)nccc2n1 [Example 231, N-(5-((7R)-9-amino-7-methyl-5,5-dioxido-5-thia-8-azaspiro[3.5]non-8-en-7-yl)-6-fluoro-3-pyridinyl)-2-methoxypyrido[3,4-b]pyrazin-5-amine]	6.41 nM	18.1 nM	163000 nM	–	–
COc1cnc2c(Nc3ccc(F)c([C@@]4(C)N=C(N)C5(CCC5)S(=O)(=O)C4F)c3)nccc2n1 (stereo partly drawn) [Example 232, N-(3-((7R)-9-amino-6-fluoro-7-methyl-5,5-dioxido-5-thia-8-azaspiro[3.5]non-8-en-7-yl)-4-fluorophenyl)-2-methoxypyrido[3,4-b]pyrazin-5-amine]	13.1 nM	78.4 nM	303000 nM	–	–

Second part, led by results:

IC50 ([1]; average IC50, enzyme assay)	IC50 ([2]; average IC50, cell assay)	IC50 (Cathepsin D (Cat D))	Structure (SMILES)	IC50 ([1]; average IC50)	IC50 ([2]; average IC50, HEK cells)
1.44 nM	2.9 nM	39700 nM	COc1cnc2c(Nc3cnc(F)c([C@]4(C)CS(=O)(=O)C(C)(C)C(N)=N4)c3)ncc(F)c2c1 [Example 219, N-(5-((3R)-5-amino-3,6,6-trimethyl-1,1-dioxido-3,6-dihydro-2H-1,4-thiazin-3-yl)-6-fluoro-3-pyridinyl)-5-fluoro-3-methoxy-1,7-naphthyridin-8-amine]	–	–
< 2 nM	3.3 nM	15200 nM	CC1(C)C(N)=N[C@](C)(c2cc(Nc3ncc(F)c4cc(Cl)cnc34)cnc2F)CS1(=O)=O [Example 220, N-(5-((3R)-5-amino-3,6,6-trimethyl-1,1-dioxido-3,6-dihydro-2H-1,4-thiazin-3-yl)-6-fluoro-3-pyridinyl)-3-chloro-5-fluoro-1,7-naphthyridin-8-amine]	–	–
1.94 nM	5.8 nM	43100 nM	CC1(C)C(N)=N[C@](C)(c2cc(Nc3ncc(F)c4cc(C#N)cnc34)cnc2F)CS1(=O)=O [Example 221, 8-((5-((3R)-5-amino-3,6,6-trimethyl-1,1-dioxido-3,6-dihydro-2H-1,4-thiazin-3-yl)-6-fluoro-3-pyridinyl)amino)-5-fluoro-1,7-naphthyridine-3-carbonitrile]	–	–
0.82 nM	5.4 nM	23800 nM	CC1(C)C(N)=N[C@](C)(c2cc(Nc3nccc4cc(Cl)cnc34)cnc2F)CS1(=O)=O [Example 223, N-(5-((3R)-5-amino-3,6,6-trimethyl-1,1-dioxido-3,6-dihydro-2H-1,4-thiazin-3-yl)-6-fluoro-3-pyridinyl)-3-chloro-1,7-naphthyridin-8-amine]	–	–
3.28 nM	12.2 nM	33000 nM	CC1(C)C(N)=N[C@](C)(c2cc(Nc3ncnc4cc(Cl)cnc34)cnc2F)CS1(=O)=O [Example 225, N-(5-((3R)-5-amino-3,6,6-trimethyl-1,1-dioxido-3,6-dihydro-2H-1,4-thiazin-3-yl)-6-fluoro-3-pyridinyl)-7-chloropyrido[3,2-d]pyrimidin-4-amine]	–	–
0.31 nM	84.5 nM	143000 nM	CC1(C)C(N)=N[C@](CF)(c2cc(Nc3ncc(F)c4cc(Cl)cnc34)ccc2F)CS1(=O)=O [Example 233, N-(3-((3S)-5-amino-3-(fluoromethyl)-6,6-dimethyl-1,1-dioxido-3,6-dihydro-2H-1,4-thiazin-3-yl)-4-fluorophenyl)-3-chloro-5-fluoro-1,7-naphthyridin-8-amine]	–	–
